What was measured:
Assay in all cases: relative viability (nuclei count vs DMSO), 5 days (fraction); higher = more cells survive
IPA-3 + Bortezomib = compound: C1=CC=C2C(=C1)C=CC(=C2SSC3=C(C=CC4=CC=CC=C43)O)O [IPA-3] + CC(C)C[C@H](NC(=O)[C@H](Cc1ccccc1)NC(=O)c1cnccn1)B(O)O [Bortezomib] (partner 0.002 µM)
In short: (§1)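 Lung cancer cell lines in 1536-well plates were dosed by pin tool the day after seeding, either with one drug alone or with a fixed anchor-drug dose plus five library-drug doses (not always all listed) in √10 steps. After 5 days, cells were fixed and their nuclei stained in one step (final 0.05% Triton X-100, 1% formaldehyde, 1 ug/ml Hoechst), then counted on 4× images. Relative viability is the nuclei count in treated wells divided by that in vehicle wells. Values are medians of duplicate plates.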

IPA-3 + Crizotinib = compound: C1=CC=C2C(=C1)C=CC(=C2SSC3=C(C=CC4=CC=CC=C43)O)O [IPA-3] + C[C@@H](Oc1cc(-c2cnn(C3CCNCC3)c2)cnc1N)c1c(Cl)ccc(F)c1Cl [Crizotinib] (partner 1 µM)
In short: as §1

Doramapimod + Decitabine = compound: Cc1ccc(-n2nc(C(C)(C)C)cc2NC(=O)Nc2ccc(OCCN3CCOCC3)c3ccccc23)cc1 [Doramapimod] + Nc1ncn([C@H]2C[C@H](O)[C@@H](CO)O2)c(=O)n1 [Decitabine] (partner 2 µM)
In short: as §1

RAF265 + Luminespib = compound: Cn1c(Nc2ccc(C(F)(F)F)cc2)nc2cc(Oc3ccnc(-c4ncc(C(F)(F)F)[nH]4)c3)ccc21 [RAF265] + CCNC(=O)c1noc(-c2cc(C(C)C)c(O)cc2O)c1-c1ccc(CN2CCOCC2)cc1 [Luminespib] (partner 0.01 µM)
In short: as §1

| Cell Line | relative viability (IPA-3 + Bortezomib; first compound 0.2 µM) | relative viability (IPA-3 + Bortezomib; first compound 0.6325 µM) | relative viability (IPA-3 + Bortezomib; first compound 2 µM) | relative viability (IPA-3 + Bortezomib; first compound 6.325 µM) | relative viability (IPA-3 + Bortezomib; first compound 20 µM) | relative viability (IPA-3 + Crizotinib; first compound 0.2 µM) | relative viability (IPA-3 + Crizotinib; first compound 0.6325 µM) | relative viability (IPA-3 + Crizotinib; first compound 2 µM) | relative viability (IPA-3 + Crizotinib; first compound 6.325 µM) | relative viability (IPA-3 + Crizotinib; first compound 20 µM) | relative viability (Doramapimod + Decitabine; first compound 0.02 µM) | relative viability (Doramapimod + Decitabine; first compound 0.06325 µM) | relative viability (Doramapimod + Decitabine; first compound 0.2 µM) | relative viability (Doramapimod + Decitabine; first compound 0.6325 µM) | relative viability (Doramapimod + Decitabine; first compound 2 µM) | relative viability (RAF265 + Luminespib; first compound 0.01 µM) | relative viability (RAF265 + Luminespib; first compound 0.03162 µM) | relative viability (RAF265 + Luminespib; first compound 0.1 µM) | relative viability (RAF265 + Luminespib; first compound 0.3162 µM) | relative viability (RAF265 + Luminespib; first compound 1 µM) |
| --- | --- | --- | --- | --- | --- | --- | --- | --- | --- | --- | --- | --- | --- | --- | --- | --- | --- | --- | --- | --- |
| BEN | 0.807 | 0.707 | 0.806 | 0.823 | 0.799 | 1.01 | 0.905 | 0.98 | 0.788 | 0.961 | 0.69 | 0.769 | 0.799 | 0.512 | 0.675 | 0.402 | 0.491 | 0.534 | 0.224 | 0.325 |
| SK-LU-1 | 1.14 | 1.21 | 1.09 | 1.19 | 1.62 | 1.27 | – | 0.929 | 0.823 | 0.89 | 0.636 | 0.617 | 0.662 | 0.637 | 0.592 | 0.203 | 0.182 | 0.177 | 0.185 | 0.176 |
| NCI-H1975 | 0.373 | 0.375 | 0.387 | 0.421 | 0.481 | 1.21 | 0.896 | 0.968 | 0.883 | 0.952 | 0.384 | 0.451 | 0.335 | 0.386 | 0.301 | 0.244 | 0.272 | 0.199 | 0.197 | 0.12 |
| RERF-LC-KJ | 1.33 | 1.36 | 1.12 | 1.25 | 1.18 | 0.794 | 0.796 | 0.922 | 0.789 | 0.816 | 0.733 | 0.669 | 0.663 | 0.684 | 0.669 | 1.34 | 1.22 | 1.08 | 0.763 | 0.713 |
| NCI-H441 | 0.446 | – | 0.285 | 0.734 | 0.589 | 0.859 | 0.635 | 0.804 | 0.659 | 0.723 | 0.238 | 0.216 | 0.268 | 0.238 | 0.194 | 0.368 | 0.29 | 0.321 | 0.263 | 0.327 |
| LCLC-103H | 1.13 | 1.06 | 1.17 | 1.17 | 1.18 | 1.07 | 0.947 | 1.03 | 1.15 | 1.1 | 0.714 | 0.704 | 0.719 | 0.742 | 0.654 | 0.798 | 0.804 | 0.789 | 0.739 | 0.39 |
| NCI-H1915 | 1.15 | 0.974 | 0.952 | 0.971 | 1.09 | 1.02 | 0.905 | 0.923 | 0.867 | 0.949 | 0.24 | 0.256 | 0.256 | 0.261 | 0.255 | 0.819 | 0.728 | 0.616 | 0.258 | 0.188 |
